This is an account of results in PMC3907537, “Evaluation of the Endothelin Receptor Antagonists Ambrisentan, Bosentan, Macitentan, and Sitaxsentan as Hepatobiliary Transporter Inhibitors and Substrates in Sandwich-Cultured Human Hepatocytes” (PLoS ONE, 2014).

In assay [1] the target is T1, OATP1B3 (Homo sapiens, UniProt Q9NPD5).
T1 construct: host or cells: CHO
T1 sequence (Q9NPD5 1-702): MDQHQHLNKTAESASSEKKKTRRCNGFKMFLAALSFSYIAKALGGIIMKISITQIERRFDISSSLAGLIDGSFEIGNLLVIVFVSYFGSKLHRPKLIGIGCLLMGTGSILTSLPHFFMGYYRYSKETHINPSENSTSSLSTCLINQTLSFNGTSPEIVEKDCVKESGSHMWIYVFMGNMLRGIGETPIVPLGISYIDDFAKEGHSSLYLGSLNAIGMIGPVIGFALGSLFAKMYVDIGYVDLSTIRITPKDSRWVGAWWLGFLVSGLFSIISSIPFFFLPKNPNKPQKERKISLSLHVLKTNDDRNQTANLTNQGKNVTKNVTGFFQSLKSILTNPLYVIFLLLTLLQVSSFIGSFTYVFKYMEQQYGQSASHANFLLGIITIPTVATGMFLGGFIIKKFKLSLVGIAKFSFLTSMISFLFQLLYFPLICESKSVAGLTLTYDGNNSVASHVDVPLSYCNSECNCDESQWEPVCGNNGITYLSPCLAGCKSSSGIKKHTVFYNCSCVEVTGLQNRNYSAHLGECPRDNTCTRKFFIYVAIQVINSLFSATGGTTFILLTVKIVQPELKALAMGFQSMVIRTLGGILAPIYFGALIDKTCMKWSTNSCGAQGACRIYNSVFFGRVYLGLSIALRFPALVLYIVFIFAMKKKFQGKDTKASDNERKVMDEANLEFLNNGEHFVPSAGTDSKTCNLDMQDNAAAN
Nature of the assay: OATP1B3 inhibition, Fluo 3 uptake in transfected CHO cells. It is filed as cell-based. From the text:
(§1) Chinese Hamster Ovary (CHO) cells were obtained from Professor B. Stieger’s laboratory at University of Zurich, Zurich, Switzerland. Madin-Darby Canine Kidney strain II (MDCKII) cells were obtained from Nederlands Kanker Instituut (NKI), Amsterdam, Netherlands. NTCP-CHO cells, BSEP and MRP2 membrane vesicles were developed and validated at Solvo Biotechnology, Budaors, Hungary.
CHO cells, either wild type or transfected with the genes encoding human NTCP, OATP1B1 and OATP1B3, were maintained in Dulbecco’s Modification of Eagle’s Medium (DMEM) containing 1,000 mg/L D-glucose, L-glutamine, 25 mM HEPES buffer, 110 mg/L sodium pyruvate, 1% Penicillin/Streptomycin, 10% fetal bovine serum (FBS), 0.05 mg/mL L proline and 0.5 mg/mL of geneticin G-418. Cells were maintained in incubators set at 37°C, 90% humidity and 5% CO2. OATP1B1 and OATP1B3 over-expressing cells were seeded in BioCoat Poly-D-Lysine coated 96-well black cell culture plates with clear bottoms at a density of 1×10^5 cells/well. Sodium butyrate (10 mM) was added to the OATP1B1 and OATP1B3 cells once seeded to increase the protein expression level and the cells were grown to confluence overnight. The assay buffer contained 142 mM NaCl, 5 mM KCl, 1 mM KH2PO4, 1.2 mM MgSO4, 1.5 mM CaCl2, 5 mM Glucose and 12.5 mM HEPES (pH 7.4). After removal of the media and before adding test compounds, the cells were washed twice with 37°C assay buffer followed by a 0.5 h pre-incubation with assay buffer. […] Wells were analyzed for Fluo 3 fluorescence at an excitation of 485 nm and emission of 530 nm. Inhibition of NTCP was studied using similar conditions to those described for OATP1B1 and OATP1B3 except that inhibition of the uptake ^3H taurocholate into transfected CHO cells was monitored using radioactive scintillation counting.
All assays were performed in duplicate. […] IC50 values were calculated using non-linear fitting of % inhibition versus concentration to a sigmoidal curve with a variable Hill Coefficient using GraphPad Prism 5 (GraphPad Software Inc., San Diego, CA).

The target in assay [2] is T2, BCRP (Homo sapiens, UniProt Q9UNQ0).
T2 construct: host or cells: MDCKII
T2 sequence (Q9UNQ0 1-655): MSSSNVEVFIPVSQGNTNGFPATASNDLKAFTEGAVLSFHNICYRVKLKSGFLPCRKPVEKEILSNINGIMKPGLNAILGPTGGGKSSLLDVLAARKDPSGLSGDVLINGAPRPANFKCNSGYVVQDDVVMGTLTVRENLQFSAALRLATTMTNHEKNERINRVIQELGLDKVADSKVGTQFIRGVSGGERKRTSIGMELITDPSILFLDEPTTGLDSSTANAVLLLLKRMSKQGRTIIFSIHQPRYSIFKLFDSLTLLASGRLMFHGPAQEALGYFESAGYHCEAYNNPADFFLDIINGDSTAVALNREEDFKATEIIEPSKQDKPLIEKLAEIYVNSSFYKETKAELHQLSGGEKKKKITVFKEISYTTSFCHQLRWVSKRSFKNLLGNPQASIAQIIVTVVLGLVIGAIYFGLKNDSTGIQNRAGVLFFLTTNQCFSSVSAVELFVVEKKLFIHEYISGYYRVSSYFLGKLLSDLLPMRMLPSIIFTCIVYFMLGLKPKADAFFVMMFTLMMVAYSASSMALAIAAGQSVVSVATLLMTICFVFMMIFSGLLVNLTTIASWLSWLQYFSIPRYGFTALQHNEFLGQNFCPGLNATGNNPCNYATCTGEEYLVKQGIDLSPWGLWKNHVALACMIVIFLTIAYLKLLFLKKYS
Briefly: BCRP inhibition in MDCKII-ABCG2 cells. It is filed as cell-based. Conditions: mean ± SD of 3 independent studies in duplicate, tested 0.14–100 µM.
Excerpt: as §1
MDCKII cells were maintained in DMEM with sodium pyruvate, Glutmax, 1% Penicillin/Streptomycin and 10% FBS in an incubator set at 37°C, 90% humidity and 5% CO2. MDCKII cells were seeded in 96-well black cell culture plates with clear bottoms at a density of 5×10^4 cells/well for Pgp and 2×10^4 cells/well for BCRP and grown to confluence. For the Pgp assay, test compounds were serially diluted in DMSO and then added into in cell culture medium (without FBS) containing 10 µM Calcein AM and incubated for 1 h. Following the removal of media containing Calcein AM and test compound, cells were washed five times with […] phosphate buffered saline containing magnesium and calcium (PBS). Wells were analyzed for Calcein AM fluorescence at an excitation of 494 nm and an emission of 517 nm. For the BCRP assay, test compounds were serially diluted DMSO and then spiked in cell culture medium (without FBS) containing 1 µM pheophorbide a (PhA) and incubated for 18 hours with MDCKII-ABCG2 cells. Following the removal of media containing PhA and test compound, cells were then washed five times with PBS. Wells were analyzed for PhA fluorescence at an excitation of 415 nm and an emission of 675 nm.
All assays were performed in duplicate. IC50 was defined as the test article concentration needed to inhibit the maximal transporter specific accumulation by 50%. IC50 values were calculated using non-linear fitting of % inhibition versus concentration to a sigmoidal curve with a variable Hill Coefficient using GraphPad Prism 5 (GraphPad Software Inc., San Diego, CA).

Setting [3] is: CHO cells, Fluo 3, mean ± SD of 3 independent studies in duplicate, tested 0.14–100 µM, read-out: OATP1B3 IC50.

Where two headings read alike, the source gives them in different places.

For `COC(c1ccccc1)(c1ccccc1)[C@H](Oc1nc(C)cc(C)n1)C(=O)O` [ambrisentan], the IC50 in assay [1] is 44.6 ± 23.8 µM; in assay [2], more than 100 µM.

`COc1ccccc1Oc1c(NS(=O)(=O)c2ccc(C(C)(C)C)cc2)nc(-c2ncccn2)nc1OCCO` [bosentan]: the values for the IC50 in assay [1] (setting [3]) and in assay [2] were 5.2 ± 2.1 µM and more than 100 µM, respectively.

As to `CCCNS(=O)(=O)Nc1ncnc(OCCOc2ncc(Br)cn2)c1-c1ccc(Br)cc1` [macitentan], the IC50 in assay [1] (setting [3]) worked out at 2.1 ± 0.3 µM; in assay [2], 75 ± 37 µM.

In general, IC50 refers to the concentration that inhibits the measured activity by half.
